Experimental data: ChEMBL document CHEMBL1141195, “Carbonic anhydrase inhibitors. The mitochondrial isozyme VB as a new target for sulfonamide and sulfamate inhibitors” (J Med Chem, 2005)

Assays:
[1] = biological target: Carbonic anhydrase 5A, mitochondrial (Homo sapiens, UniProt P35218)
[2] = biological target: Carbonic anhydrase 5B, mitochondrial (Homo sapiens, UniProt Q9Y2D0)
Sequence of Carbonic anhydrase 5B, mitochondrial (Q9Y2D0 whole entry): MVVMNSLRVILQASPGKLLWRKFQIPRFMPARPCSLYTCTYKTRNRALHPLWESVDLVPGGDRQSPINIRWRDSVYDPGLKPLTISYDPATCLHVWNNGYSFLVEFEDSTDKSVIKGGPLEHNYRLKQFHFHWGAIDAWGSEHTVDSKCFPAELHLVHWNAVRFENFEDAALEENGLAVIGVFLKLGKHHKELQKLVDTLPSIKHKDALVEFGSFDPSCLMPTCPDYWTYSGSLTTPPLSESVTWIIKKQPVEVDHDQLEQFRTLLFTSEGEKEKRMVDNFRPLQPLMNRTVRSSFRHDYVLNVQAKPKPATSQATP

Sequence of Carbonic anhydrase 5A, mitochondrial (P35218 whole entry): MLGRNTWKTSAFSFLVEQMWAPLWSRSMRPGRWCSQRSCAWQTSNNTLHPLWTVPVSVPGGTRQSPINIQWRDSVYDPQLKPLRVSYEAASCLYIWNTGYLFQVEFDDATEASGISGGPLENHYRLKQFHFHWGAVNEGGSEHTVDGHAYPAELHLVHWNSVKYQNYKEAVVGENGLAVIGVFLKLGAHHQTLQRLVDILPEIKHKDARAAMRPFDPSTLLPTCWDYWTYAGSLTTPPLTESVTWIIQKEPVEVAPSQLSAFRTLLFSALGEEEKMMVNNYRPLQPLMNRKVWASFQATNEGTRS

SMILES	Ki [1] [µM]	Ki [2] [µM]
Nc1nnc(S(N)(=O)=O)s1	2.3	2.15
Nc1cc(Cl)c(S(N)(=O)=O)cc1S(N)(=O)=O		6.21
Nc1ccc(S(=O)(=O)Nc2nnc(S(N)(=O)=O)s2)cc1	0.034	0.03
NS(=O)(=O)c1nnc(-c2ccccc2Cl)s1	0.043	0.03
NS(=O)(=O)c1nc2ccc(O)cc2s1	0.054	0.041
Cn1nc(S(N)(=O)=O)sc1=N	2.16	2.08
NCCc1ccc(S(N)(=O)=O)cc1	42.4	8.95
Nc1ccc(S(=O)(=O)NCCc2ccc(S(N)(=O)=O)cc2)cc1	0.121	0.042
NS(=O)(=O)c1ccc(S(=O)(=O)Nc2cccc3c(Cl)c[nH]c23)cc1	0.079	0.023
Nc1cc(C(F)(F)F)c(S(N)(=O)=O)cc1S(N)(=O)=O [2,4-DISULFAMYLTRIFLUOROMETHYLANILINE]		6.56
CCN[C@H]1CN(CCCOC)S(=O)(=O)c2sc(S(N)(=O)=O)cc21 [BRINZOLAMIDE]	0.05	0.03
CC1(C)O[C@@H]2[C@@H](CO[C@@]3(COS(N)(=O)=O)OC(C)(C)O[C@@H]23)O1 [TOPIRAMATE]	0.063	0.03

Second part, the molecule after the results:

Ki [1] [µM]	Ki [2] [µM]	SMILES
9.6	3.4	NNc1ccccc1S(N)(=O)=O
0.176	0.024	Nc1ccc(S(=O)(=O)NCc2ccc(S(N)(=O)=O)cc2)cc1
9.4	3.3	Nc1ccc(S(N)(=O)=O)cc1I
17	10.2	Nc1nccc(Nc2ccc(S(N)(=O)=O)cc2)n1
15.3	9.56	Nc1ccccc1S(N)(=O)=O
7.6	3.54	Nc1ccc(S(N)(=O)=O)cc1Br
8.7	7	NS(=O)(=O)c1ccc(CCO)cc1
9.3	4.22	Nc1ccc(S(N)(=O)=O)cc1F
9.3	7.45	NS(=O)(=O)c1ccc(CO)cc1
7.4	4.3	Nc1ccc(S(N)(=O)=O)cc1Cl
7.7	3.5	NNc1ccc(S(N)(=O)=O)cc1
2.65	1.56	NS(=O)(=O)c1ccc(C(=O)O)cc1 [CARZENIDE]
27.6	12.3	NCc1ccc(S(N)(=O)=O)cc1 [MAFENIDE]
4.7	2.43	Cc1ccc(S(N)(=O)=O)cc1 [P-TOLUENESULFONAMIDE]
32		Nc1ccc(S(N)(=O)=O)cc1 [SULFANILAMIDE]
